Measurements taken from US20120028897A1, “METHODS AND COMPOSITIONS FOR THE TREATMENT OF FLUID RETENTION DISORDERS” (priority 2008, published 2012).

Columns and labels:
[1] = target: T1, GC-C receptor, GC-C-expressing T84 cell line (Homo sapiens, UniProt P25092); test: T84 cell cyclic GMP bioassay; type: cell-based
T1 construct: measuring cyclic GMP synthesis in the GC-C-expressing T84 cell line; endogenous in cells; host or cells: T84 colon carcinoma cells
Method: (§1) Bioassay of huUgnA-like activity. The concentration of huUgnA-like bioactivity in infused peptide solutions and in urine collected during experiments was measured using a T84 cell-based bioassay, as described previously. T84 cells are a colon carcinoma cell line that increases cyclic GMP production in response to GC-C receptor agonists such as Ugn, Gn and ST core peptide. T84 cells were grown to near confluence in 12 well culture clusters, and then incubated with unknowns or standard concentrations of huUgnA. Standards or urine samples were diluted into bioassay medium (1 mM 3-isobutyl-1-methylxanthine, 0.03 mM phenol red, 137 mM NaCl, 5.4 mM KCl, 0.25 mM Na2HPO4, 0.44 mM KH2PO4, 1.3 mM CaCl2, 1.0 mM MgSO4, 4.2 mM NaHCO3, 10 mM HEPES buffered at pH 7.0) and the pH was adjusted to 7.0, if required, using the phenol red indicator dye as a guide. This pH adjustment was necessary, as it is well-established that the response of T84 cells to UGn is highly pH dependent. The broad spectrum phosphodiesterase inhibitor (isobutyl methylxanthine) was included to prevent degradation of cyclic GMP. After 30 min, the cells were lysed and cyclic GMP levels measured by radioimmunoassay (Biomedical Technologies Inc Stoughton Mass.). Standards and unknowns were assayed in triplicate. […]

[2] = Urinary excretion and isomer identity after iv infusion (T84 bioassay and LC-MS of urine); type: in vivo, rat; settings: for stability of identity and properties in vivo: infused rats; for GC-C stimulating activity recovered in urine: T84 bioassay
Method: FIG. 3A is a graph showing urinary excretion of “UgnA like” activity as a function of time in animals treated with the either huUgnA (filled symbols) or huUgnB (open symbols). huUgn was infused into an anesthetized rat during the period indicated by the horizontal bar. […] A sample of the urine acquired during each clearance period was evaluated for activity in the T84 cell bioassay. The resulting cyclic GMP responses were then converted to apparent recoveries of “UgnA-like” peptide by interpolation on a huUgnA standard curve (constructed as in FIG. 1A). Appropriate dilutions were chosen to ensure that the activity in each sample would not saturate this assay.
After post-surgical equilibration (−60 min) and three 20 min control clearance periods, huUgnA or B was infused into the jugular vein at 10 μl/min over a 60 min period, followed by a return to isotonic saline for the remainder of the experiment. The infused doses of huUgnA were 12, 25, 50, 100, or 200 nmol/kg BW in a total of 38 rats; huUgnB doses were 9, 18, 35, 70, and 140 nmol/kg BW in 35 rats. A UgnA mimetic, E. coli STh (ST-core), was infused into a third group of 32 rats at doses of 17, 32, 66, 133, and 266 nmol/kg. Renal excretory responses to these infusions were slow to develop and long lasting, so clearance periods were continued for 2-3 hr after the termination of the peptide infusion. This protracted time course limited protocols to one dose of one peptide in each rat. A control group of 10 rats received isotonic saline at 10 μl/min in place of the peptide infusion, but was otherwise treated in the same way as the experimental groups.
HPLC analysis and mass spectroscopy of Ugn isomers. The integrity and purity of huUgnA and B isomer preparations were confirmed by liquid chromatography/mass spectroscopy (LC-MS) analysis. The two Ugn isomers have different retention times on a reverse phase HPLC column (FIG. 1, dashed trace; huUgnA elutes ˜0.35 minutes before huUgnB). Separations were performed on a Hypersil Gold AQ 2.1×50 mm column from Thermo Fisher Scientific Inc (Waltham, Mass.) equilibrated in 98% buffer A (0.1% formic acid), 2% buffer B (85:10:5 Acetonitrile/Isopropyl Alcohol/5 mM NH4OAc pH 5.8) with a flow rate of 0.4 ml/min on an Acquity HPLC system. After a 2.5 minute wash with the same buffers, peptides were eluted with a linear gradient of 2% buffer B to 80% buffer B over 25 minutes and held for one minute before an increase to 90% B over 2 minutes to wash the column, followed by a return to 2% buffer B over 3 minutes.
Peptide masses were determined using a Micromass Q-T of II instrument equipped with an electrospray ionization (ESI) source operating in positive ion mode. The instrument was programmed to scan in the mass range of m/z 100 to 1800. Molecular weight predictions and data analysis were carried out with MassLynx version 4.0 software. […] were injected directly without any sample preparation using an Acquity HPLC system connected in line with the Q-T of II.
as §1, with “dependent.” for “dependent. The broad spectrum phosphodiesterase inhibitor (isobutyl methylxanthine) was included to prevent degradation of cyclic GMP. After 30 min, the cells were lysed and cyclic GMP levels measured by radioimmunoassay (Biomedical Technologies Inc Stoughton Mass.). Standards and unknowns were assayed in triplicate.”

Mice = test: Natriuretic response in mice; type: in vivo, mouse

T1 sequence (P25092 24-1073): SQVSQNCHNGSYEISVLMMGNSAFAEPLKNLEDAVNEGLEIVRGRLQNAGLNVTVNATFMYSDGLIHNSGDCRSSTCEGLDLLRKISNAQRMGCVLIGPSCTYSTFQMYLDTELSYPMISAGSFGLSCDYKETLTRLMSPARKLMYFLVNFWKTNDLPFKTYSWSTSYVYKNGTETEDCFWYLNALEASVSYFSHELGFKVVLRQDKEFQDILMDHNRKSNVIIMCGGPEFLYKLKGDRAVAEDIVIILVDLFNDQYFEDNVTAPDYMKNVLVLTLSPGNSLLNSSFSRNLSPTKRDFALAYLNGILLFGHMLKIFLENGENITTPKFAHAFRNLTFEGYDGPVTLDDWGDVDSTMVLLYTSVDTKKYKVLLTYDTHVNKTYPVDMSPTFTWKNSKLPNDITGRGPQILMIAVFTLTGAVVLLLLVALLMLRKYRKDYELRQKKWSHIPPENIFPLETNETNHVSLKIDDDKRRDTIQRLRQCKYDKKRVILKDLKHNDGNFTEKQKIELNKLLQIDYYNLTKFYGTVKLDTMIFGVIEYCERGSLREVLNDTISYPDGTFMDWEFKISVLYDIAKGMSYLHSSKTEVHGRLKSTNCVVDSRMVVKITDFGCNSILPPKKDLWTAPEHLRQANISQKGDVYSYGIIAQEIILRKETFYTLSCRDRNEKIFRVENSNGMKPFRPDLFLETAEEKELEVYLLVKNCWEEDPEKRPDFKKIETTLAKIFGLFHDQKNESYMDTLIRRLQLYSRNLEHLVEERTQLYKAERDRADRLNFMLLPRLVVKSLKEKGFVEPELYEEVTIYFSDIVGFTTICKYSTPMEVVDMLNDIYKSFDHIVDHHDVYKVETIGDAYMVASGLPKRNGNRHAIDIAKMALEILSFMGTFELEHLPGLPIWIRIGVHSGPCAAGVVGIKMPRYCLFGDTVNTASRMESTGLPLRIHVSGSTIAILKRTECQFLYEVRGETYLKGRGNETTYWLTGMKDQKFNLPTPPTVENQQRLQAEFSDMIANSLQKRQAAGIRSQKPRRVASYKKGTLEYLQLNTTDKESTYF

For `CC(C)C[C@H](NC(=O)[C@@H]1CSSC[C@@H]2NC(=O)[C@H](CC(C)C)NC(=O)[C@H](CCC(=O)O)NC(=O)[C@@H](NC(=O)[C@H](CC(=O)O)NC(=O)[C@H](CC(=O)O)NC(=O)[C@@H](N)CC(N)=O)CSSC[C@H](NC(=O)[C@H](C)NC(=O)[C@H](C(C)C)NC(=O)[C@H](CC(N)=O)NC(=O)[C@H](C(C)C)NC2=O)C(=O)N[C@@H]([C@@H](C)O)C(=O)NCC(=O)N1)C(=O)O` (single isomer, unassigned) [huUgnB, Asn Asp Asp Cys Glu Leu Cys Val Asn Val Ala Cys Thr Gly Cys Leu], the “T84 cell cGMP response on co-application of huUgnA and B” value ([1]; 25 nM huUgnA with 180 nM huUgnB (FIG. 2B)) was “not different from those evoked by huUgnA alone”, the “potency in activating cyclic GMP synthesis, fold less potent than the A isoform” value ([1]; GC-C-expressing T84 cell line) was “more than 100 fold” and the “stability of identity and properties in vivo” value [2] was “sufficiently stable for use in acute animal studies”. For the same compound, the “isomerization in vivo, LC-MS of urine at peak peptide excretion” value ([2]; iv infusion, anesthetized rat) was “a clearly discernable huUgnB signal along with a barely detectible huUgnA signal”, the “GC-C stimulating activity recovered in urine” value ([2]; iv infusion, anesthetized rat) was “very little” and the natriuretic response (Mice) was “exhibit a natriuretic response”.

With `CC(C)C[C@H](NC(=O)[C@@H]1CSSC[C@@H]2NC(=O)[C@H](CC(C)C)NC(=O)[C@H](CCC(=O)O)NC(=O)[C@@H](NC(=O)[C@H](CC(=O)O)NC(=O)[C@H](CC(=O)O)NC(=O)[C@@H](N)CC(N)=O)CSSC[C@H](NC(=O)[C@H](C)NC(=O)[C@H](C(C)C)NC(=O)[C@H](CC(N)=O)NC(=O)[C@H](C(C)C)NC2=O)C(=O)N[C@@H]([C@@H](C)O)C(=O)NCC(=O)N1)C(=O)O` (single isomer, unassigned) [huUgnA, Asn Asp Asp Cys Glu Leu Cys Val Asn Val Ala Cys Thr Gly Cys Leu, reference compound] the “stability of identity and properties in vivo” value [2] was “sufficiently stable for use in acute animal studies”, the “isomerization in vivo, LC-MS of urine at peak peptide excretion” value ([2]; iv infusion, anesthetized rat) was “essentially no isomerization had occurred” and the “return of urinary GC-C stimulating activity to baseline after infusion was terminated” value ([2]; iv infusion, anesthetized rat) was “within an hour”. For the same compound, the “time to appearance of GC-C stimulating activity in urine from start of infusion” value ([2]; iv infusion, anesthetized rat) was no more than 20 min and the “GC-C stimulating activity recovered in urine” value ([2]; iv infusion, anesthetized rat) was “a significant amount”.
